One data set concerns the target immobilized β2-AR (Homo sapiens, UniProt P07550).
The conditions of data set [1]: dose 200 mg/kg, ref Qin et al. (2006); cited from earlier work.
The subject of the next data set is cough of mice. Conditions: ref Liu et al., 2007; cited from earlier work.
A further data set deals with mice trachea. Further details: method as in Liu et al., 2007. Conditions: ref Liu et al., 2007; cited from earlier work.
Data set [2] deals with rat tracheal smooth muscle pre-contracted by high K+ solution. Kind of data set: Relaxation of isolated rat tracheal strips pre-contracted by high K+ solution, with or without ICI 118551. Format: cell-based. Conditions: 0.1 μM to 1.0 mM, high K+ (60 mM) pre-contracted. The method, then: The potential β2-AR-mediating relaxant mechanisms of the compound were also evaluated in the absence and presence of a specific inhibitor. This was performed with the scarification of rats weighing 250–300 g by exsanguination from the abdominal aorta. We collected the tracheal tissues between the larynx and the lungs and immediately immersed them in cold oxygenated Krebs solution (118 mM NaCl, 4.8 mM KCl, 2.5 mM CaCl2, 1.2 mM MgSO4, 25 mM NaHCO3, 1.2 mM KH2PO4, and 9.8 mM glucose; pH 7.4). After the removal of adhesive tissues, we spirally isolated the tracheal segment with three cartilage rings to assay the tracheal strip reactivity. Such strips were mounted onto two L-shaped stainless-steel holders connected with a force–displacement transducer. The isometric tension was determined in a tissue bath by a PowerLab data acquisition system.
We aerated the pre-warmed Krebs solution (37°C) with a gas mixture of 95% O2 and 5% CO2. At initial tests, the tracheal strips with tensions of 1.0-g mass were equilibrated for 60 min. The resulting strips were stimulated with high-potassium (K^+) solution (63 mM NaCl, 60 mM KCl, 2.5 mM CaCl2, 1.2 mM MgSO4, 25 mM NaHCO3, 1.2 mM KH2PO4, and 9.8 mM glucose; pH 7.4) to evoke a contractile response in the presence or absence of ICI 118551 (10 μM). […]

The subject of the next data set is ileum and trachea. Further details: method as in Liu et al., 2007. Conditions: histamine-induced; ref Liu et al., 2007; cited from earlier work.
The nature of data set [3]: Pharmacokinetic study in rats after oral administration (HPLC-MS/MS). Format: in vivo, Sprague–Dawley (SD) rats. Conditions: mogroside V 200 mg/kg or LHG extract 12.5 ml/kg. The method, then:
Male Sprague–Dawley (SD) rats (240 ± 20 g) were purchased from the Experimental Animal Center of Xi’an Jiaotong University (Xi’an, China). The animals were maintained in a room under controlled temperature (24 ± 1°C) and humidity (50–70%) with 12-h light/dark cycle. The rats were fed with standard laboratory food and acclimatized to the environment for a week before the experiment. All animals were treated in accordance with the Guide for the Care and Use of Laboratory Animals under the approval of the Animal Experimentation Ethics Committee at Northwest University.
All the plasma samples were analyzed on an Inertsil ODS-3-C18 column (5 μm, 4.6 mm × 150 mm). The mobile phase for quantitative determination of mogroside V in rat plasma consisted of 29% acetonitrile/0.2% (v/v) formic acid at a flow rate of 0.6 ml/min. The injection volume was 20 μl under a detection wavelength of 203 nm.
The optimized mass conditions include the following: capillary voltage of 3,500 V, drying gas of 8 L/min at 350°C, nebulizer pressure of 40 psi at 350°C, and ion scan range of 100–2,000 amu. Under these conditions, multi-reaction monitoring (MRM) mode was carried out to specifically and sensitively detect the mogroside V. The mass transitions were m/z 1,285.6 → 1,123.6 for mogroside V and m/z 931.3 → 637.5 for IS (notoginsenoside R1).
An aliquot of 10 μl of IS working solution was added into an aliquot of 90 μl of plasma samples. Vortexing the mixture for 2.0 min, we centrifuged the plasma for 10 min with a speed of 12,000 rpm at a temperature of 4°C. The supernatant was collected and transferred to another 0.5-ml centrifuge tube and then blow dried with nitrogen. We applied 200 μl of methanol to redissolve it, which was used for analysis.
Eighteen rats were randomly divided into three groups of six for each group, including blank control, mogroside V, and LHG groups. The blank group was orally administered with normal saline. The other two groups were administered with mogroside V at a dose of 200 mg/kg and LHG aqueous extraction at a dose of 12.5 ml/kg (equivalent to 200 mg/kg mogroside V). Blood samples were collected in heparin sodium vacutainers at post-dose 5, 15, 30, 45, 60, 90, 120, 240, 360, 480, and 720 min. The plasma was pre-treated by centrifugation and frozen at −80°C until further analysis. The pharmacokinetic parameters including the area under curve (AUC0–720, and AUC0–∞), the maximum plasma concentration (Cmax), the time to achieve maximum plasma concentration (T max), and the elimination half-life (t 1/2z) were calculated by Drug and Statistics 3.0.0 software (DAS, T. C. M., Shanghai, China). All data were recorded as the mean ± standard deviation (SD), and the 95% confidence interval was also estimated when necessary.

For data set [4] the following is noted: cited from earlier work.
A short description of data set [5]: Stability of mogroside V in rat plasma (QC samples, HPLC-MS/MS). Particulars: for Short term Stability (%): room temperature 14 h; for Long term Stability (%): −20°C 1 month; for Freeze–thaw Stability (%): three freeze (−20°C) and thaw cycles. Format: in vitro ADME. As to the method:
The stability of mogroside V in plasma was evaluated at three QC levels in six replicates under varieties of storing and processing conditions. The results of the peak area of QC samples were compared with those from freshly prepared standard samples. The QC samples with recoveries of 85–115% were defined as having good stability under the desired conditions. Short-term stability was assessed after QC samples were saved at room temperature for 14 h. Subsequently, freeze–thaw stability was assessed after three freeze (−20°C) and thaw (room temperature) cycles of QC samples. Long-term stability was examined after QC samples were saved at −20°C for 1 month.

The mark [6] stands for this setting: male, Sprague-Dawley, rat, in vivo, mogroside V in plasma.

Where two headings read alike, the source gives them in different places.

Sequence of immobilized β2-AR (P07550 whole entry): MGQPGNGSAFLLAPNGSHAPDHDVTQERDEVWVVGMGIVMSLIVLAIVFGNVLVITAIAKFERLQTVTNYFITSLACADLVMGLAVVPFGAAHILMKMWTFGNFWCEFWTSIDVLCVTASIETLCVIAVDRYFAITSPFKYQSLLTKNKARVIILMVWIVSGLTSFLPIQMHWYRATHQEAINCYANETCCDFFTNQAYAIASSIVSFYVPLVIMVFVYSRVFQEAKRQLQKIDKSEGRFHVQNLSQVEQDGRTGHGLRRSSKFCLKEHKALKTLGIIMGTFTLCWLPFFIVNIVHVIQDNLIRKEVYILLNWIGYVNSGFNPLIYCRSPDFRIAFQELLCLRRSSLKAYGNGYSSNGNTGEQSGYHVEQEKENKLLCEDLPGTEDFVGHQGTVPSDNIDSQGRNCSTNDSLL

In the case of `O=N[O-].[Na+]` [sodium nitrite, Sodium nitrite], the “retention time on immobilized β2-AR column” value on immobilized β2-AR stood at 0.7 min.

Broadly, the Cmax is the maximum level reached in the sampled fluid or tissue. The term Tmax denotes the time from dosing to the highest level. Take `C[C@H](CC[C@@H](O[C@@H]1O[C@H](CO[C@@H]2O[C@H](CO)[C@@H](O)[C@H](O)[C@H]2O)[C@@H](O)[C@H](O)[C@H]1O[C@@H]1O[C@H](CO)[C@@H](O)[C@H](O)[C@H]1O)C(C)(C)O)[C@H]1CC[C@@]2(C)[C@@H]3CC=C4[C@@H](CC[C@H](O[C@@H]5O[C@H](CO[C@@H]6O[C@H](CO)[C@@H](O)[C@H](O)[C@H]6O)[C@@H](O)[C@H](O)[C@H]5O)C4(C)C)[C@]3(C)[C@H](O)C[C@]12C` [Mogroside V]: the “toxicity after oral administration” value in data set [1] is “nontoxic”. Moreover, in the data set with cough of mice, the “cough times of mice” value is “reducing the cough times” and the “incubation period for cough of mice” value is “prolonged”. For the same molecule, the “phenol red excretion of mice trachea” value in the data set with mice trachea is on record as “effective for extending”. The “relaxation of tracheal strips” value in data set [2] (absence of ICI 118551) is “concentration-dependent manner”. In data set [2] (presence of ICI 118551 (10 μM)), the “relaxation of tracheal strips” value is “disappeared”. In addition, in the data set on ileum and trachea, the “spasmodic contraction of the ileum and trachea caused by histamine” value was “obvious capability to antagonize”. Moreover, the “retention time of LHG extract peak on immobilized β2-AR column, identified as mogroside V” value on immobilized β2-AR (ammonium acetate buffer (5 mM, pH = 7.4), 0.2 ml/min, 203 nm, void time 0.7 min) turned out to be 4.3 min. Also, in data set [3] (setting [6]), the Cmax stood at 1330 ng/mL and the time of peak concentration (Tmax) is 0.75 h. The half-life in data set [3] (male, Sprague-Dawley, rat, in vivo, mogroside V in plasma, read-out: t1/2z) turned out to be 2.31 ± 0.22 h. In addition, in data set [3], the peak plasma concentration is given as 1,330.6 ± 132.2 ng/ml. The “detection in rat plasma” value in data set [4] (oral administration, dose increased to 5 mg/kg, ref Luo, 2017) is reported as “disappears”. Also, in data set [4] (tail intravenous injection (1.12 or 2.0 mg/kg) and intraperitoneal administration (1.12 mg/kg), ref Zhou et al., 2018), the “detection in rat plasma” value was “detectable”. Moreover, in [5] (rat plasma, 30 ng/ml added), the “Short term Stability (%)” value came to 94.8% and the “Long term Stability (%)” value is recorded as 94.4%. Moreover, in data set [5] (rat plasma, 500 ng/ml added), the “Short term Stability (%)” value is 94.8%, the “Freeze–thaw Stability (%)” value is given as 95.4% and the “Long term Stability (%)” value was 93.8%. Further, in data set [5] (rat plasma, 5,000 ng/ml added), the “Short term Stability (%)” value is 93.2%, the “Freeze–thaw Stability (%)” value came to 96.6% and the “Long term Stability (%)” value worked out at 92.2%.

With `COc1cc2nc(N3CCN(C(=O)C4CCCO4)CC3)nc(N)c2cc1OC` (stereo not drawn) [terazosin], the “retention time on immobilized β2-AR column” value at immobilized β2-AR (mobile phase ammonium acetate (5 mM, pH = 7.4), each injected three times) is 1.0 min.

The record behind these values is article PMC6707405, “Screening Bioactive Compounds of Siraitia grosvenorii by Immobilized β2-Adrenergic Receptor Chromatography and Druggability Evaluation” (Frontiers in Pharmacology, 2019).
